Counter-ions that a name gives are not always drawn.
System: Rattus norvegicus
Test: Percent reduction in total serum Cholesterol level at 1.0 mg/kg oral dose
Format: functional

Row | Structure (SMILES) | Reduction
1 | Cl.Oc1ccc(-c2sc3cc(O)ccc3c2Oc2ccc(OCCN3CCCCC3)cc2)cc1 | 45%

System: MCF7
Test: Inhibition of estrogen-induced proliferation in human MCF-7 breast cancer cells
Format: functional, cell-based

Row | Structure (SMILES) | IC50
2 | C[C@]12CC[C@@H]3c4ccc(O)cc4C[C@@H](CCCCCCCCC[S+]([O-])CCCC(F)(F)C(F)(F)F)[C@H]3[C@@H]1CC[C@@H]2O (stereo partly drawn) [FULVESTRANT] | 0.49 nM
3 | O=C(c1ccc(OCCN2CCCCC2)cc1)c1c(-c2ccc(O)cc2)sc2cc(O)ccc12 [RALOXIFENE HYDROCHLORIDE] | 0.4 nM
4 | CC/C(=C(\c1ccccc1)c1ccc(OCCN(C)C)cc1)c1ccccc1 [TAMOXIFEN] | 481 nM

These reach a lower IC50. Values come first.

Row | IC50 | Structure (SMILES)
5 | 0.28 nM | Oc1ccc(-c2sc3cc(O)ccc3c2Sc2ccc(OCCN3CCCCC3)cc2)cc1
6 | 0.19 nM | Oc1ccc(-c2sc3cc(O)ccc3c2Cc2ccc(OCCN3CCCCC3)cc2)cc1
7 | 0.1 nM | Oc1ccc(-c2sc3cc(O)ccc3c2Nc2ccc(OCCN3CCCCC3)cc2)cc1
8 | 0.05 nM | Cl.Oc1ccc(-c2sc3cc(O)ccc3c2Oc2ccc(OCCN3CCCCC3)cc2)cc1

Reference: ChEMBL document CHEMBL1130021 (J Med Chem, 1997)
